From patent US9962388B2, “Pyrrolopyrimidine compounds used as TLR7 agonist” (priority 2014, dated 2018)
Like-named read-outs stand apart in the source and are kept apart here.

Legend:
Toll-like receptor 7 = Toll-like receptor 7 (Homo sapiens (Human), UniProt Q9NYK1); experiment: Toll-like receptor 7 in vitro receptor binding activity screen (HEK-blue hTLR7 cell, alkaline phosphatase/Quanti-Blue readout); assay type: cell-based; details: for EC50: HEK-blue hTLR7 cell, read-out: TLR7 EC50
Procedure: (§1) Toll-Like Receptor 7 and Toll-Like Receptor 8 In Vitro Receptor Binding Activity Screen
(§2) HEK-blue hTLR7 cell and HEK-blue hTLR8 cell (available from InvivoGen)
(§3) 1. Preparation of 96-well compound plate:
(§4) The compounds were gradient diluted with DMSO in 3-fold using liquid work station POD starting at a concentration of 10 mmol/L and 10 points were diluted (2nd column to 11th column, and each point was duplicated). At 12th column, 1 μL of 5 mg/mL positive compound R848 was added as positive control; and at 1st column, 1 μL of DMSO was added as negative control. Each well contained 1 μL of DMSO.
(§5) 2. The cells in culture flask were collected and the cell density was diluted to 250,000 cells/mL.
(§6) 3. 200 μL (50,000 cells/well) of cell suspension was added into prepared compound plate and the final concentration of DMSO in each well was 0.5%.
(§7) 4. The culture plates containing cells and the compounds were incubated in CO2 incubator for 24 h at 37° C., 5% CO2.
(§8) 5. After 24 h incubation, 20 μL of supernatant was removed from each well to a 96-well transparent assay plate. To each well of the assay plate was added 180 μL of Quanti-Blue reagent and the plate was incubated in an incubator at 37° C., 5% CO2 for 1 h.
(§9) 6. After 1 h, the content of alkaline phosphatase in 20 μL of supernatant was determined using Microplate Reader OD650.
(§10) 7. EC50 of each compound was obtained with Prism software.

[1] = system: human peripheral blood mononuclear cells (PBMC); experiment: Peripheral blood mononuclear cell assay (cytokine induction, CBA); assay type: cell-based; details: for minimal effective concentration: Homo sapiens, read-out: INF-α MEC
Procedure: Peripheral Blood Mononuclear Cell Assay The purpose of this example is to determine the expression level of cytokines 24 h after stimulation to human peripheral blood mononuclear cells (PBMC) with the compounds. The cell supernatant was assayed without dilution and the levels of IFN-α and TNF-α were directly determined. The compound was firstly formulated into 20 mM DMSO stock solution and was gradient diluted with cell medium in 10-fold with the total number of 11 diluting points. The compounds in 9 diluting points (the highest concentration was 200 μmol/L) were added into 96-well plate with 50 μL in each well. Fresh human peripheral blood mononuclear cells were inoculated, with 150 μL in each well containing 450,000 cells. The cell culture plate was incubated in an incubator at 37° C., 5% CO2 for 24 h. After incubation, the culture plate was centrifuged at 1200 rpm for 5 min and the supernatant was collected and stored at −20° C. for determination. The determination of cytokine was performed using Cytometric Bead Array (CBA) of BD-Pharmingen on flow cytometer. Using the above determining method, the lowest drug concentration stimulating cytokine level which is over 3 times greater than the lowest detectable limit was designated as the MEC (Minimal Effective Concentration) value in the cytokine stimulating test.

duck hepatitis b virus = experiment: In vivo pharmacodynamics in duckling model infected with hepatitis B virus; set-up: species or system Beijing ducks
Procedure: In Vivo Pharmacodynamics in Duckling Model Infected with Hepatitis B Virus
Experimental design and procedures: Beijing ducks of 1 day old were intravenously administered duck hepatitis b virus positive duck serum. After 7 days, the animals were administered according to grouping, 6 ducks in each group. Control group: normal saline. […] The samples were administered intragastricly: 20 mg/kg groups were administered once every third day (one administration every 3 days) and 5 mg/kg groups were administered once every day for 16 days. […] For control group infected with duck hepatitis b virus, solvent was used instead of drug. 7 days after infection, the blood was collected before administration (TO),8 days after administration (T8),16 days after administration (T16) and 3 day after ceasing administration (P3), and the duck serum was separated and frozen for storage. […] Duck serum DNA (DHBV-DNA) determination: different duck sera in a batch were determined for duck blood DHBV-DNA level with real time fluorescent quantitative PCR. Statistics analysis: paired and grouped analysis was used to calculate the significance of inhibition of drug on duck serum DHBV-DNA for assessment.

in vivo = details: rat
Procedure: 12 male SD rats were divided into 4 groups with 3 SD rats in each group. […] […] Each rat with oral administration was collected for whole blood samples which were prepared into plasma 15, 30 min and 1, 2, 4, 8, 24 h continuously after administration.

Toll-like receptor 8 = Toll-like receptor 8 (Homo sapiens (Human), UniProt Q9NR97); experiment: Toll-like receptor 8 in vitro receptor binding activity screen (HEK-blue hTLR8 cell, alkaline phosphatase/Quanti-Blue readout); assay type: cell-based
Procedure: as §1, §2, §3, §4, §5, §6, §7, §8, §9, §10

hepatitis b virus = experiment: In vivo pharmacodynamics in HDI (hydrodynamic injection) mouse model infected with hepatitis b virus; details: 20 mg/kg intragastric, once a day, day 1 to day 7; FIGS. 1 and 2
Procedure: In Vivo Pharmacodynamics in HDI (Hydrodynamic Injection) Mouse Model Infected with Hepatitis b Virus
Experimental Design and Procedures:
Route: intragastric administration
Administration time: day 1 to day 7, 7 days in total
At day 1, 3, 5 and 7, plasma samples were collected 4 h after administration; and at day 7, liver sample was collected 4 h after administration.

[2] = PBMC, 24 h, human PBMC, 24 h, Minimal Effective Concentration

Sequence of Toll-like receptor 7 (Q9NYK1 27-1049): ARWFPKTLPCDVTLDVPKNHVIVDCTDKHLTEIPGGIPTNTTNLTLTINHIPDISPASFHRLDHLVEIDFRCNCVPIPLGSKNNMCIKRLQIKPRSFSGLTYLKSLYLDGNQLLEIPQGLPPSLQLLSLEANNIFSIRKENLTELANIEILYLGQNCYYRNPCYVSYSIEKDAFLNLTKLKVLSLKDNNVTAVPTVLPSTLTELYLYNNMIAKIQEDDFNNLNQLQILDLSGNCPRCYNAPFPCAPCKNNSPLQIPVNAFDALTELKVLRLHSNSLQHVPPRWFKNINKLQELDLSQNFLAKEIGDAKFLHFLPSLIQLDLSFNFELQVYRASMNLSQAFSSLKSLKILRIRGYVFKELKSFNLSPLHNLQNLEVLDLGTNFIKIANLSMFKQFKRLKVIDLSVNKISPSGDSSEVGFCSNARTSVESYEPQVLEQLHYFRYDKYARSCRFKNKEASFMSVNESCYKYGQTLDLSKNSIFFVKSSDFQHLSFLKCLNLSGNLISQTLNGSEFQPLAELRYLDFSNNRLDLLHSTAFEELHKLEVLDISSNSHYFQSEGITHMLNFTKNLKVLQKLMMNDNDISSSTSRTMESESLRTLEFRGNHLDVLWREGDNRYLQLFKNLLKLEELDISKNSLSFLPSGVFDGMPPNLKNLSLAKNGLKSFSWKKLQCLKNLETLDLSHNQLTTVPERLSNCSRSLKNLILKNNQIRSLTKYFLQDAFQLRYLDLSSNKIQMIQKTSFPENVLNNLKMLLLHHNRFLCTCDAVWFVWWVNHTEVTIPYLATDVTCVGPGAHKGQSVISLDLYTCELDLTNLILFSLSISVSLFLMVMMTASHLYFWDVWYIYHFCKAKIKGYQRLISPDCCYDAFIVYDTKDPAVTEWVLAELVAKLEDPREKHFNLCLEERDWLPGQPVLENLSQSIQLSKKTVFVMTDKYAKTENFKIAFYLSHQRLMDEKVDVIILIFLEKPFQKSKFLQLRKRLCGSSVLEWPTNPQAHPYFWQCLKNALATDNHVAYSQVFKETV
Sequence of Toll-like receptor 8 (Q9NR97 27-1041): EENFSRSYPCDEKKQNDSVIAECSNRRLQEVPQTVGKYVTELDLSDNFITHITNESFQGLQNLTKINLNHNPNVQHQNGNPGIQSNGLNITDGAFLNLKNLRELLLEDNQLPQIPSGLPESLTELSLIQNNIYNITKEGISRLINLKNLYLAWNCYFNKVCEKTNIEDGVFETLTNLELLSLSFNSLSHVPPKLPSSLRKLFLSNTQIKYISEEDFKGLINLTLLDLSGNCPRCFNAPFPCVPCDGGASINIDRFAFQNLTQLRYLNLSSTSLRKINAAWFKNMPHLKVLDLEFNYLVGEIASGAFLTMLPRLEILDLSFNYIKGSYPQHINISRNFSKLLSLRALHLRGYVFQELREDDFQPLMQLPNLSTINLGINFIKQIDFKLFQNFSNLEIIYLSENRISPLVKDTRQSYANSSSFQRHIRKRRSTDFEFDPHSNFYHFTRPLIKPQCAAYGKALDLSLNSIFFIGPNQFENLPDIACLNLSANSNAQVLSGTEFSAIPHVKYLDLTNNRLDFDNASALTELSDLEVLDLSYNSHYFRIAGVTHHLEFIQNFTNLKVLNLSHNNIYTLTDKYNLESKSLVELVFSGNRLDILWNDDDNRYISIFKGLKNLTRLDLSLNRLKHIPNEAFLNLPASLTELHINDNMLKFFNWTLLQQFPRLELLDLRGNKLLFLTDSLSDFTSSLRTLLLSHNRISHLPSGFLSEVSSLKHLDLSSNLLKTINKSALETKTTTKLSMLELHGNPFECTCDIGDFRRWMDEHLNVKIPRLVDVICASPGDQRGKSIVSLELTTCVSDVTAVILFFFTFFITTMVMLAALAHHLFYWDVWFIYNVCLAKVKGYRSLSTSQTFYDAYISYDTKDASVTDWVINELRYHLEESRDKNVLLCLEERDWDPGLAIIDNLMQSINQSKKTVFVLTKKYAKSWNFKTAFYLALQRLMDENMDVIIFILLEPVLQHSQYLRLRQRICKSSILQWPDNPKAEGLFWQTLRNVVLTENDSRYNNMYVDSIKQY

CCCCOc1nc(N)c2[nH]cc(Cc3cccc(CN4CCCC4)c3)c2n1 [Example 4, 2-butoxy-7-(3-(pyrrolidine-1-ylmethyl)benzyl)-5H-pyrrolo[3,2-d]pyrimidine-4-amine]
EC50 (Toll-like receptor 7; 24 h): 0.1 to 1 µM | minimal effective concentration [1, 2]: 0.01 to 100 µM

CCCCOc1nc(N)c2[nH]cc(Cc3ccc(CN4CCCC4)cc3)c2n1 [Example 21, 2-butoxy-7-(4-(pyrrolidine-1-ylmethyl)benzyl)-5H-pyrrolo[3,2-d]pyrimidine-4-amine]
EC50 (Toll-like receptor 7; 24 h): 0.1 to 1 µM | EC50 (Toll-like receptor 7; head-to-head test): 0.16 µM | in vitro receptor binding activity to Toll-like receptor 7 compared with GS-9620 (Toll-like receptor 7; versus control GS-9620): higher | Duck serum HBV-DNA inhibition % (duck hepatitis b virus; 5 mg/kg intragastric once every day for 16 days, P3): 95.55 ± 3.56 % | Duck serum HBV-DNA inhibition % (duck hepatitis b virus; 5 mg/kg intragastric once every day for 16 days, T8): 99.96 ± 0.06 % | inhibition rate compared with GS-9620 (duck hepatitis b virus; 5 mg/kg, one administration everyday): significant advantage | Duck serum HBV-DNA inhibition % (duck hepatitis b virus; 20 mg/kg intragastric once every third day, P3 (3 days after ceasing administration)): 92.81 ± 13.79 % | Duck serum HBV-DNA inhibition % (duck hepatitis b virus; 20 mg/kg intragastric once every third day, T8 (8 days after administration)): 100.0 ± 0 % | Duck serum HBV-DNA inhibition % (duck hepatitis b virus; 20 mg/kg intragastric once every third day, T16 (16 days after administration)): 98.80 ± 1.84 % | rebound of HBV-DNA replication (duck hepatitis b virus; 20 mg/kg one administration every third day, 3 days after ceasing administration): no rebound | inhibition rate compared with GS-9620 (duck hepatitis b virus; 20 mg/kg, one administration every third day): roughly comparable | AUC(0-inf) (in vivo; male, SD, iv, 1 mg/kg): 0.676 µM·h | AUC(0-t) (in vivo; male, SD, iv, 1 mg/kg): 0.641 µM·h | Cmax (in vivo; male, SD, iv, 1 mg/kg): 478 nM | Vd (in vivo; male, SD, iv, 1 mg/kg): 29 L/kg | clearance (in vivo; male, SD, iv, 1 mg/kg): 65.8 mL/min/kg | half-life (in vivo; male, SD, iv, 1 mg/kg): 5.76 h | Mean plasma drug concentration (in vivo; male, SD, iv, 1 mg/kg, 0.083 h): 318 nM | Mean plasma drug concentration (in vivo; male, SD, iv, 1 mg/kg, 0.25 h): 141 nM | Mean plasma drug concentration (in vivo; male, SD, iv, 1 mg/kg, 0.5 h): 109 nM | Mean plasma drug concentration (in vivo; male, SD, iv, 1 mg/kg, 1 h): 74.3 nM | Mean plasma drug concentration (in vivo; male, SD, iv, 1 mg/kg, 2 h): 48.9 nM | Mean plasma drug concentration (in vivo; male, SD, iv, 1 mg/kg, 4 h): 37.7 nM | Mean plasma drug concentration (in vivo; male, SD, iv, 1 mg/kg, 8 h): 31.6 nM | Mean plasma drug concentration (in vivo; male, SD, iv, 1 mg/kg, 24 h): 3.94 nM | AUC(0-inf) (in vivo; male, SD, po, 5 mg/kg): 0.749 µM·h | AUC(0-t) (in vivo; male, SD, po, 5 mg/kg): 0.699 µM·h | Cmax (in vivo; male, SD, po, 5 mg/kg): 186 nM | half-life (in vivo; male, SD, po, 5 mg/kg): 6.24 h | Mean plasma drug concentration (in vivo; male, SD, po, 5 mg/kg, 0.25 h): 69.4 nM | Mean plasma drug concentration (in vivo; male, SD, po, 5 mg/kg, 0.5 h): 41.6 nM | Mean plasma drug concentration (in vivo; male, SD, po, 5 mg/kg, 1 h): 36.4 nM | Mean plasma drug concentration (in vivo; male, SD, po, 5 mg/kg, 2 h): 186 nM | Mean plasma drug concentration (in vivo; male, SD, po, 5 mg/kg, 4 h): 51.2 nM | Mean plasma drug concentration (in vivo; male, SD, po, 5 mg/kg, 8 h): 23.9 nM | Mean plasma drug concentration (in vivo; male, SD, po, 5 mg/kg, 24 h): 5.25 nM | exposure compared with GS-9620 (in vivo): higher exposure | half-life compared with GS-9620 (in vivo): longer half-life | EC50 (Toll-like receptor 8; HEK-blue hTLR8 cell, head-to-head test, read-out: TLR8 EC50): 11.6 µM | in vitro receptor binding activity to Toll-like receptor 8 compared with GS-9620 (Toll-like receptor 8; versus control GS-9620): lower | minimal effective concentration [1, 2]: 1e-05 to 0.001 µM | minimal effective concentration ([1]; PBMC, 24 h, human PBMC, 24 h, head-to-head test): 0.005 µM | TNF-α inducing activity compared with GS-9620 ([1]; PBMC, versus control GS-9620): comparable | in vitro IFN-α inducing activity compared with GS-9620 ([1]; PBMC, versus control GS-9620): higher | TNF-α MEC ([1]; human PBMC, 24 h, head-to-head test): 500 nM | efficacy by HBV copy numbers in plasma and liver compared with GS-9620 (hepatitis b virus): better efficacy

CCCCOc1nc(N)c2[nH]cc(Cc3ccc(CN4CCCC4)nc3)c2n1 [Example 22, 2-butoxy-7-((6-(pyrrolidine-1-ylmethyl)pyridine-3-yl)methyl)-5H-pyrrolo[3,2-d]pyrimidine-4-amine]
EC50 (Toll-like receptor 7; 24 h): 0.1 to 1 µM | minimal effective concentration [1, 2]: 0.001 to 0.01 µM

CCCCOc1nc(N)c2[nH]cc(Cc3ccc4c(c3)CNCC4)c2n1 [Example 28, 2-butoxy-7-((1,2,3,4-tetrahydroisoquinoline-7-yl)methyl)-5H-pyrrolo[3,2-d]pyrimidine-4-amine]
EC50 (Toll-like receptor 7; 24 h): 0.1 to 1 µM | minimal effective concentration [1, 2]: 0.001 to 0.01 µM
